Here are results for seven compounds from patent publication US9260484B2, “Small molecule composite surfaces as inhibitors of protein-protein interactions” (Ohio State Innovation Foundation, priority 2011, dated 2016).

“Also recorded” adds a separate entry of the source. Read-outs that look alike come from different tables or passages of the source. Numbered stars: 1 amine (or outer) side, 2 acyl side, 3 side chain; on linkers, the order of the positions; unused ones are H or OH. Bridge positions count the residues as written; N and C are the ends. Square brackets hold non-standard residues; d marks the D form. Peptide text beside a SMILES is read from it. dβ3h(hPhe) = O=C(C[C@@H](CCc1ccccc1)N[*:1])[*:2]; Phe(4-F) = N[C@@H](Cc1ccc(F)cc1)C(=O)O; d2Nal = N[C@H](Cc1ccc2ccccc2c1)C(=O)O; X1 = CC(C)(CO[*:2])C(=O)C(=O)[*:1]; dNle = CCCC[C@@H](N)C(=O)O; Pip = O=C(O)[C@@H]1CCCCN1

One test has as its target FKBP (no GST) (Homo sapiens, UniProt P62942). Briefly: fluorescence polarization binding of FITC-labeled compound to FKBP. On the technique in general: Polarisation of emitted light reports the rotation of a fluorescent probe.
A further test has as its target T1, FKBP (Homo sapiens, UniProt P62942).
T1 construct: 200 nM recombinant FKBP
The test can be described thus: fluorescence polarization (FA) competition assay for binding to FKBP. How it is done: To facilitate solid-phase synthesis, an invariant glutamine was added to the C-terminal side of the R^1 residue, for the purpose of backbone peptide cyclization and providing an anchor for attachment to the solid support. For this set of compounds, the dipeptide Ala-Ala was used as the effector domain. The rapalogs were tested for binding to FKBP by a fluorescence polarization competition assay^22,23. SLF^24, was labeled with the fluorescent dye fluorescein^23. Binding of the labeled ligand to FKBP increases its fluorescence anisotropy (FA) values. Addition of an unlabeled ligand to the reaction inhibits the binding of SLF to FKBP and therefore decreases the FA values. […] Subsequently, the IC50 values were converted into KI values based on the Cheng-Prusoff equation.
A previously reported synthetic ligand of FKBP^46 (SLF in FIG. 2), was labeled with the fluorescent dye fluorescein^20. Binding of the labeled ligand to FKBP increases its fluorescence anisotropy (FA) value.
The fluorescence polarization based competition assay was performed in a 384-well plate. […] After the addition of the rapalogs as the last component, the binding reactions were incubated for 1 h at room temperature to reach binding equilibrium. Anisotropy values were measured on a FlexStation 3 plate reader (Molecular Devices, Sunnyvale, Calif.).

Another test concerns the target K-Ras and Tiam (Homo sapiens, UniProt P01116, G12V). Briefly: bead assay: K-Ras binding to immobilized Myc-tagged effector protein. Conditions: 10 μM compound; Texas red-labeled GST-K-Ras 100 nM. How it is done: (§1) Compound B12 was also assayed for its ability to inhibit the PPI between K-Ras and its effector proteins including PI3 kinase, Tiam, and RalGDS. The Myc-tagged effector proteins were immobilized on protein A-beads with an anti-Myc antibody.

A further test deals with K-Ras and PI3 kinase (Homo sapiens, UniProt P01116, G12V). The test is described as above. The note with it: 10 μM compound; Texas red-labeled GST-K-Ras 100 nM. How it is done: as §1
K-Ras and PI3 kinase, sequence (P01116 1-188 isoform P01116-2 G12V): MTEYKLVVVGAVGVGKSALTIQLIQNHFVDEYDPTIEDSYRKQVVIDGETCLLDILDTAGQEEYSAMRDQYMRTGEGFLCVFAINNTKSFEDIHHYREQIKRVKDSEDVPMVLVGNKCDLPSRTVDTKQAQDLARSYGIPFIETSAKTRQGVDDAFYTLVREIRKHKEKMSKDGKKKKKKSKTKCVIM
The subject of test [1] is H358 lung cancer cell line. Briefly: MTT viability assay. Format: cell-based, human. How it is done: (§2) FIG. 14. MTT viability assay with H358 and A549 lung cancer cell lines (both have mutant K-Ras). The assay was performed to assess the effect of compound B12 on proliferation and survival of these cell lines.
(§3) Finally, preliminary cellular assays were performed with compound […]. Singh et al. used RNA interference to down regulate mutant K-RAS in a large number of human cancer cell lines.^102 They reported that the H358 cell line is very sensitive to losing mutant K-Ras whereas the A549 cell line is hardly affected. Both are lung cancer cell lines.
For orientation: Tetrazolium assays rely on reduction of a dye to a coloured formazan, in cell work by metabolically active cells.

Test [2] deals with A549 lung cancer cell line. Briefly: MTT viability assay. Format: cell-based, human. How it is done: as §2, §3
Another test concerns the target K-Ras and RalGDS (Homo sapiens, UniProt P01116, G12V). The test can be described thus: bead assay: K-Ras binding to immobilized Myc-tagged effector protein. The note with it: 10 μM compound; Texas red-labeled GST-K-Ras 100 nM. The text has this: The Myc-tagged effector proteins were immobilized on protein A-beads with an anti-Myc antibody.
Setting [3] is: Table 2, converted from IC50 by Cheng-Prusoff equation, read-out: Ki.

T1 sequence (P62942 whole entry): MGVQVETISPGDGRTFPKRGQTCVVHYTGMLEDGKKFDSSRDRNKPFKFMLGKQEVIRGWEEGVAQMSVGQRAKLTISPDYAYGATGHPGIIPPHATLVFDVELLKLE
K-Ras and RalGDS, sequence (P01116 1-188 isoform P01116-2 G12V): as the sequence (P01116 1-188 isoform P01116-2 G12V) above
K-Ras and Tiam, sequence (P01116 1-188 isoform P01116-2 G12V): as above
FKBP (no GST), sequence (P62942 whole entry): as the sequence (P62942 whole entry) above

As a reminder, the Kd is a measure of binding affinity in units of concentration. Compound `CCCC[C@H]1NC(=O)[C@H](Cc2ccc(F)cc2)NC(=O)[C@H](CCCN=C(N)N)NC(=O)[C@@H](Cc2ccc3ccccc3c2)NC(=O)[C@H](CCCN=C(N)N)NC(=O)[C@H](CCCN=C(N)N)NC(=O)[C@H](CCC(N)=O)NC(=O)C[C@@H](CCc2ccccc2)NC(=O)[C@@H]2CCCCN2C(=O)C(=O)C(C)(C)COC1=O` [Compound C12] ([Pip][dβ3h(hPhe)]QRR[d2Nal]R[Phe(4-F)][dNle]; linker N-C via X1) gave a Kd at FKBP (no GST) of 500 nM.

One may read the Ki as the equilibrium dissociation constant of an inhibitor or competing ligand from its target. Consider `C[C@@H]1NC(=O)[C@H](C)NC(=O)[C@H](CCC(N)=O)NC(=O)C[C@@H](CCc2ccccc2)NC(=O)[C@@H]2CCCCN2C(=O)C(=O)C(C)(C)COC(=O)[C@@H](C)NC(=O)[C@H](C)NC1=O` [Compound 2p] ([Pip][dβ3h(hPhe)]QAAA[dA]; linker N-C via X1), for which, on FKBP (setting [3]), the inhibition constant Ki is 180 ± 60 nM.

One may read the IC50 as the concentration that gives 50% inhibition. Take `CCCC[C@H]1NC(=O)[C@H](Cc2ccc(F)cc2)NC(=O)[C@H](CCCNC(=N)N)NC(=O)[C@@H](Cc2ccc3ccccc3c2)NC(=O)[C@H](CCCNC(=N)N)NC(=O)[C@H](CCCNC(=N)N)NC(=O)[C@H](CCC(N)=O)NC(=O)C[C@@H](CCc2ccccc2)NC(=O)[C@@H]2CCCCN2C(=O)C(=O)C(C)(C)COC1=O` [Compound C12] ([Pip][dβ3h(hPhe)]QRR[d2Nal]R[Phe(4-F)][dNle]; linker N-C via X1): on K-Ras and Tiam, the “binding of GST-KRas to immobilized Tiam” value is listed as “completely blocked”. For the same compound, the “binding of GST-KRas to immobilized PI3 kinase” value at K-Ras and PI3 kinase is “completely blocked”. Further, the entries for the “sensitivity of cells to compound” value in test [1] (FIG. 14) and in test [2] (FIG. 14) were “sensitive” and “significantly less sensitive”, respectively. Further, the IC50 was around 10000 nM in test [1] (H358 cells, proliferation and survival, preliminary); around 50000 nM in test [2] (A549 cells, proliferation and survival, preliminary). The “binding of GST-KRas to immobilized RalGDS” value at K-Ras and RalGDS is “completely blocked; also recorded: Disruption”.

For `C[C@@H]1NC(=O)[C@H](C)NC(=O)[C@H](CCC(N)=O)NC(=O)C[C@@H](CCc2ccccc2)NC(=O)[C@@H]2CCCCN2C(=O)C(=O)C(C)(C)COC(=O)[C@H]([C@@H](C)O)NC(=O)[C@H](C)NC1=O` [Compound 2r] ([Pip][dβ3h(hPhe)]QAAAT; linker N-C via X1), the inhibitory constant (Ki) on FKBP (setting [3]) stood at 300 ± 100 nM.

Regarding `C[C@@H]1NC(=O)[C@H](C)NC(=O)[C@H](CCC(N)=O)NC(=O)C[C@H](CCc2ccccc2)NC(=O)[C@@H]2CCCCN2C(=O)C(=O)C(C)(C)COC(=O)[C@H](Cc2ccccc2)NC1=O` [Compound 2j], the Ki at FKBP worked out at 800 ± 100 nM.

The compound `C[C@@H]1NC(=O)[C@H](CCC(N)=O)NC(=O)C[C@@H](CCc2ccccc2)NC(=O)[C@@H]2CCCCN2C(=O)C(=O)C(C)(C)COC(=O)[C@H](Cc2ccccc2)NC(=O)[C@H](C)NC(=O)[C@@H](C)NC1=O` [Compound 2s] ([Pip][dβ3h(hPhe)]QA[dA]AF; linker N-C via X1) came in with a Ki on FKBP of 900 ± 200 nM.

`C[C@@H]1NC(=O)[C@H](C)NC(=O)[C@H](CCC(N)=O)NC(=O)[C@H](C)NC(=O)[C@@H]2CCCCN2C(=O)C(=O)C(C)(C)COC(=O)[C@@H](C)NC1=O` [Compound 2a] (HELM PEPTIDE1{[O=C([C@@H]1CCCCN1[*:1])[*:2]].A.Q.A.A.[dA]}|CHEM1{[CC(C)(CO[*:2])C(=O)C(=O)[*:1]]}$PEPTIDE1,CHEM1,1:R1-1:R1|PEPTIDE1,CHEM1,6:R2-1:R2$$$V2.0): the Ki on FKBP (setting [3]) turned out to be 7000 ± 1000 nM.
